# Reference: patent US10507233B2, “Universal N-glycan binding reagent” (New England Biolabs, Inc., priority 2014, dated 2019)
# Biological target: T1, SNAP-Fbs: human Fbs sugar binding domain, wild type, SEQ ID NO: 2, fused to SNAP-tag (fusion SEQ ID NO: 3), on beads (Homo sapiens, UniProt Q9UK22)
# T1 construct: SNAP-only beads as control
# T1 sequence (Q9UK22 113-296): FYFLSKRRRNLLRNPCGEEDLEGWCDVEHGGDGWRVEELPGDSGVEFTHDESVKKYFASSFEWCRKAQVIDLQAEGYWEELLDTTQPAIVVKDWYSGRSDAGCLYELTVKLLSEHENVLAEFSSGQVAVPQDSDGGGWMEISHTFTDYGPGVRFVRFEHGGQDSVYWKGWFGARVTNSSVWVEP
# Experiment: Binding of 2-AB labeled M3N2 to SNAP-Fbs beads versus SNAP control beads
# Settings: 50 picomoles, low salt buffer, SNAP-Fbs beads vs SNAP control beads
# Description: SNAP-Fbs is efficiently conjugated to BG beads (SNAP Capture Pull-Down resin (New England Biolabs, Ipswich, Mass.): SNAP-Fbs protein is reacted with BG beads at 4° C. overnight in a DTT-containing buffer (4 mM DTT, 20 mM tris-HCl pH 7.5, 1 mM EDTA, 50 mM NaCl). After the conjugation reaction, SNAP-Fbs beads are washed with 40× bead volume of low salt buffer.
# When PNGase F is used to trim N-glycans away from the peptides or proteins, the terminal GlcNAc residue becomes available for modification. A common modification is fluorophore labeling using 2-AB dye. The primary amino group of the dye performs a nucleophilic attack on the carbonyl carbon of the acyclic reducing terminal residue to form a partially stable Schiff's base. […] The conserved terminal GlcNAc residue is thus referred to as the “reducing end” of a glycan species. Upon 2-AB labeling, the carbohydrate ring structure is no longer capable of forming. Fifty picomoles of 2-AB labeled M3N2 in low salt buffer were incubated with SNAP-Fbs beads or SNAP control beads (SNAP Capture beads conjugated to SNAP-tag Purified Protein, New England Biolabs, Ipswich, Mass.).
smiles,measurement,value
CC(=O)N[C@H]1[C@H](O[C@@H]([C@H](O)[C@H](CNc2ccccc2C(N)=O)NC(C)=O)[C@H](O)CO)O[C@H](CO)[C@@H](O[C@@H]2O[C@H](CO[C@H]3O[C@H](CO)[C@@H](O)[C@H](O)[C@@H]3O)[C@@H](O)[C@H](O[C@H]3O[C@H](CO)[C@@H](O)[C@H](O)[C@@H]3O)[C@@H]2O)[C@@H]1O [2-AB labeled M3N2],binding of 2-AB labeled M3N2,2-AB labeling disrupts the interaction between glycan and Fbs and completely abolishes binding
